Results from patent publication US6576652B2, “Use of an angiotensin II receptor antagonist for the preparation of drugs to increase the survival rate of renal transplant patients” (Merck Sharp & Dohme (Italia) S.p.A., priority 1997, dated 2003).

Key:
[1] = system: awake rats made hypertensive by ligation of the left renal artery; assay: Antihypertensive effects in renal hypertensive rats; type: in vivo, rat; details: Table 1
Description: This procedure increases blood pressure by increasing renin production with consequent elevation of All levels. Compounds are administered orally at 100 mg/kg and/or intravenously via a cannula in the jugular vein at 10 mg/kg. Arterial blood pressure is continuously measured directly through a carotid artery cannula and recorded using a pressure transducer and a polygraph. Blood pressure levels after treatment are compared to pretreatment levels to determine the antihypertensive effects of the compounds (See Table 1). Compounds listed in Table 2 were tested in the same manner as described for Table 1, except that in the test for anti hypertensive effects in renal hypertensive rats, the compounds were administered orally at 30 mg/kg and intravenously at 3 mg/kg.

[2] = system: bilaterally nephrectomized Lewis rats transplanted with kidney from Fisher 344 donor rat; assay: Chronic renal allograft failure rat model, 6 month follow-up; details: for FSGS % (range) / Animal survival / Proteinuria / SBP: end of 6 month follow-up; for Animal survival: allograft rats; for Proteinuria / SBP: mean ±SD
Description: Transplanted rats received cyclosporine (5 mg/kg/day i.m.) for the first 10 days to prevent acute rejection, and doses of antihypertensive drugs were adjusted to maintain blood pressure within the normal range.

conscious Dogs = assay: Hypotensive effects before and after furosemide in conscious dogs; type: in vivo, dog; details: cumulative iv 0.3 to 3 mg/kg
Description: The hypotensive effects of 2-butyl-4-chloro-1-[(2′-(1H-tetrazol-5-yl)biphenyl-4-yl)methyl]-5-hydroxymethylimidazole sodium salt were compared before and after furosemide administration to conscious Dogs.

Row | Compound | Antihypertensive Effects in Renal Hypertensive Rats Intravenous Activity ([1]; intravenous, 10 mg/kg) | Antihypertensive Effects in Renal Hypertensive Rats Oral Activity ([1]; oral, 100 mg/kg) | Protection from chronic allograft injury and long-term animal survival ([2]; at comparable level of SBP control) | FSGS % (range) [2] | Animal survival [2] | Proteinuria [2] | SBP [2] | Effect on blood pressure (conscious Dogs; after furosemide 10 mg/kg im at 18 and 2 hours before) | Inhibition of pressor response to AII (conscious Dogs; after furosemide 10 mg/kg im) | Inhibition of pressor response to AII (conscious Dogs; before furosemide, 10 min post dose) | Effect on blood pressure (conscious Dogs; normotensive conscious dogs, before furosemide, n=4)
1 | CCCCc1nc(Cl)c(CO)n1Cc1ccc(-c2ccccc2-c2nn[nH]n2)cc1 [Losartan, 2-n-butyl-4-chloro-5-hydroxymothyl-1-[(2′-(1H-tetrazol-5-yl)biphenil-4-yl)methyl]imidazole] | + (Significant decrease in blood pressure at 10, mg/kg or less) | + (Significant decrease in blood pressure at 100 mg/kg or less) | effectively protects animals from chronic allograft injury | 3 (0-10) % | 100% | 71 ± 46 mg/day | 114 ± 12 mm HG |  |  |  | 
2 | CCOC(=O)C1=C(C)NC(C)=C(C(=O)OCC)C1c1ccccc1/C=C/C(=O)OC(C)(C)C [Lacidipine, reference compound] |  |  |  | 15 (10-20) % | 34% | 167 ± 26° mg/day | 125 ± 7 mm HG |  |  |  | 
3 | CCCCc1nc(Cl)c(CO)n1Cc1ccc(-c2ccccc2-c2nnn[nH]2)cc1.[Na] [2-butyl-4-chloro-1-[(2′-(1H-tetrazol-5-yl)biphenyl-4-yl)methyl]-5-hydroxymethylimidazole sodium salt] |  |  |  |  |  |  |  | caused a significant decrease | inhibited the pressor response to AII at the two higher doses | effective in inhibiting the pressor response to AII | did not lower blood pressure
